The target in assay [1] is T1, LecBPA7 (Pseudomonas paraeruginosa, UniProt A6V267). The experiment in a line: ITC. The class given is binding. Further details: gene PSPA7_1769; recombinant LecBPA7.
In assay [2] the target is T1, LecBPA7. The experiment in a line: X-ray crystal structure ([…] Å) and ITC. Further details: gene PSPA7_1769; recombinant LecBPA7, 114 amino acids, tetramer. The class given is binding.

The source of these data is PMC4885879, “Genomic Rearrangements and Functional Diversification of lecA and lecB Lectin-Coding Regions Impacting the Efficacy of Glycomimetics Directed against Pseudomonas aeruginosa” (Frontiers in Microbiology, 2016).

As a reminder, the Kd is the equilibrium constant for the complex coming apart.

T1 sequence (A6V267 entry or part of it): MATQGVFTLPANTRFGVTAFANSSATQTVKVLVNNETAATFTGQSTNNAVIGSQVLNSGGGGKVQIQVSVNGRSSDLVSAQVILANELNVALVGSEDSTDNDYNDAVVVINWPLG

`CO[C@@H]1O[C@@H](C)[C@@H](O)[C@@H](O)[C@@H]1O` [FucOMe, methyl α-L-fucoside]: at LecBPA7 [1], the Kd came to 2.2 µM. As for `CC(=O)N[C@H]1[C@H](O[C@H]2[C@@H](O)[C@@H](CO)OC(O)[C@@H]2O)O[C@H](CO)[C@@H](O[C@@H]2O[C@@H](C)[C@@H](O)[C@@H](O)[C@@H]2O)[C@@H]1O[C@@H]1O[C@H](CO)[C@H](O)[C@H](O)[C@H]1O` (stereo partly drawn) [Lewis^a tetrasaccharide], at LecBPA7 [2], the equilibrium dissociation constant (Kd) came out at 2.01 µM. Take `CO[C@H]1O[C@H](CO)[C@@H](O)[C@H](O)[C@@H]1O` [ManOMe, methyl α-D-mannoside]: the Kd at LecBPA7 [1] stood at 73 µM.
